Source: US20210154186A1, “COMPOSITIONS AND METHODS FOR INHIBITING DIHYDROOROTATE DEHYDROGENASE” (Clear Creek Bio, Inc., priority 2018, published 2021)
Read-outs that look alike come from different tables or passages of the source.

Columns and labels:
solid malignancies = conditions: 43 patients; patient with papillary carcinoma of the thyroid; cited from earlier work
[1] = mouse model of AML, daily administration of high doses; cited from earlier work
[2] = system: leukemia-initiating cell activity; conditions: mouse models of AML; only when elevated plasma levels are maintained for extended periods; cited from earlier work
DHODH [3] = target: DHODH (Mus musculus, UniProt O35435); assay: DHO remaining in plasma of mice after brequinar 50 mg/kg (FIG. 6); conditions: at about 84 hours
[4] = system: acute myeloid leukemia (AML); assay: Clinical response of patients with AML to brequinar-containing composition; type: in vivo, human
DHODH [5] = target: DHODH (Homo sapiens, UniProt Q02127); conditions: for DHO plasma level threshold achieved: after a dose
[6] = Adverse events observed in subjects receiving brequinar intravenously once weekly; type: in vivo, human; conditions: 209 subjects, i.v. once week, median dose 1200 mg/m^2
[7] = 650 mg/m^2 brequinar (days 1, 8 and 15) with 75 mg/m^2 cisplatin (day 1); cited from earlier work
[8] = Example 9, first patient, threshold 1,600 ng/mL
[9] = Example 10, second patient, threshold 2,900 ng/mL
[10] = Example 11, threshold 133 ng/mL

Chain of DHODH (Homo sapiens, UniProt Q02127) (Q02127 whole entry): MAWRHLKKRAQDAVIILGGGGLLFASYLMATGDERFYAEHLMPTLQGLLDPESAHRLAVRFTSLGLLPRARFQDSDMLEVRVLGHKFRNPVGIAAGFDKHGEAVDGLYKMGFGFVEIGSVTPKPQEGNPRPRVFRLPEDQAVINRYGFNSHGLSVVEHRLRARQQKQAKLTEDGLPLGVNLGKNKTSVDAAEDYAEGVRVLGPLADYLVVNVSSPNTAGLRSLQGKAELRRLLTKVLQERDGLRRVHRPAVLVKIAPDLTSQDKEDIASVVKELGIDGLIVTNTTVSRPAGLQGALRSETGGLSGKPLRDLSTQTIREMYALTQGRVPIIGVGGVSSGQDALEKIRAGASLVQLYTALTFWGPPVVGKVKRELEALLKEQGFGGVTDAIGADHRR
Chain of DHODH (Mus musculus, UniProt O35435) (O35435 whole entry): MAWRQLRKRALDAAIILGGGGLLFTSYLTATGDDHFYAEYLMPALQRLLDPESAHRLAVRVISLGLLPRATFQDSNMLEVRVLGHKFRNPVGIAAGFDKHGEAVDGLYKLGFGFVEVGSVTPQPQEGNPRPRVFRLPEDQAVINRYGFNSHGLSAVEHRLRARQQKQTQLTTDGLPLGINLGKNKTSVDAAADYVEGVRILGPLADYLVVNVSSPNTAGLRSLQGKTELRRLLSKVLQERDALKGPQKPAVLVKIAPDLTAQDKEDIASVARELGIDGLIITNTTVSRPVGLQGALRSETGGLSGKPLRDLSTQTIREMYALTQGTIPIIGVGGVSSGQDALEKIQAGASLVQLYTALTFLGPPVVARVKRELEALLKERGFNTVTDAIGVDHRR

## Cc1c(-c2ccc(-c3ccccc3F)cc2)nc2ccc(F)cc2c1C(=O)O [Brequinar sodium]
Solid malignancies
  tumour response observed: One mixed response

## Cc1c(-c2ccc(-c3ccccc3F)cc2)nc2ccc(F)cc2c1C(=O)O [Brequinar, 6-fluoro-2-(2′-fluoro-1,1′ biphenyl-4-yl)-3-methyl-4-quinoline carboxylic acid]
[1]
  toxic effects: weight loss, anemia, and thrombocytopenia
[2]
  effect on leukemia-initiating cell activity: decreases leukemia-initiating cell activity
DHODH [3]
  concentration of DHO remaining in the plasma: about 100 ng/mL
[4]; Example 9, first patient, […], improvement of extramedullary hematopoiesis, shift to more differentiation in peripheral blasts
  clinical response: positive response
[4]; Example 10, second patient, lowering of peripheral blasts, increase in absolute neutrophil count, greater differentiation of peripheral blasts
  clinical response: positive response
[4]; Example 11, indicated by a trend towards differentiation of peripheral blasts
  clinical response: positive response
DHODH [5]; Example 9, first patient with AML
  DHO plasma level threshold achieved: 1,600 ng/mL
DHODH [5]; [8]
  time remained above the DHO threshold: 84 h
  time to achieve the DHO plasma level threshold: less than 24 hours
DHODH [5]; Example 10, second patient with AML
  DHO plasma level threshold achieved: 2,900 ng/mL
DHODH [5]; [9]
  time remained above the DHO threshold: 84 h
  time to achieve the DHO plasma level threshold: < 24 h
DHODH [5]; Example 11, patient with AML
  DHO plasma level threshold achieved: 133 ng/mL
DHODH [5]; [10]
  time remained above the DHO threshold: 84 h
  time to achieve the DHO plasma level threshold: less than 2 hours
[6]
  All Body Systems: No. of Patients Experiencing the AE, 5y Max Grade 1: 36
  All Body Systems: No. of Patients Experiencing the AE, 5y Max Grade 2: 76
  All Body Systems: No. of Patients Experiencing the AE, 5y Max Grade 3: 55
  All Body Systems: No. of Patients Experiencing the AE, 5y Max Grade 4: 35
  Anemia: No. of Patients Experiencing the AE, 5y Max Grade 1: 14
  Anemia: No. of Patients Experiencing the AE, 5y Max Grade 2: 48
  Anemia: No. of Patients Experiencing the AE, 5y Max Grade 3: 23
  Anemia: No. of Patients Experiencing the AE, 5y Max Grade 4: 5
  Anorexia: No. of Patients Experiencing the AE, 5y Max Grade 1: 11
  Anorexia: No. of Patients Experiencing the AE, 5y Max Grade 2: 3
  Anorexia: No. of Patients Experiencing the AE, 5y Max Grade 3: 1
  Anorexia: No. of Patients Experiencing the AE, 5y Max Grade 4: 0
  Constipation: No. of Patients Experiencing the AE, 5y Max Grade 1: 6
  Constipation: No. of Patients Experiencing the AE, 5y Max Grade 2: 2
  Constipation: No. of Patients Experiencing the AE, 5y Max Grade 3: 1
  Constipation: No. of Patients Experiencing the AE, 5y Max Grade 4: 0
  Diarrhea: No. of Patients Experiencing the AE, 5y Max Grade 1: 43
  Diarrhea: No. of Patients Experiencing the AE, 5y Max Grade 2: 21
  Diarrhea: No. of Patients Experiencing the AE, 5y Max Grade 3: 10
  Diarrhea: No. of Patients Experiencing the AE, 5y Max Grade 4: 3
  Dyspepsia: No. of Patients Experiencing the AE, 5y Max Grade 1: 6
  Dyspepsia: No. of Patients Experiencing the AE, 5y Max Grade 2: 1
  Dyspepsia: No. of Patients Experiencing the AE, 5y Max Grade 3: 0
  Dyspepsia: No. of Patients Experiencing the AE, 5y Max Grade 4: 0
  Fatigue: No. of Patients Experiencing the AE, 5y Max Grade 1: 23
  Fatigue: No. of Patients Experiencing the AE, 5y Max Grade 2: 8
  Fatigue: No. of Patients Experiencing the AE, 5y Max Grade 3: 2
  Fatigue: No. of Patients Experiencing the AE, 5y Max Grade 4: 0
  Fever: No. of Patients Experiencing the AE, 5y Max Grade 1: 4
  Fever: No. of Patients Experiencing the AE, 5y Max Grade 2: 7
  Fever: No. of Patients Experiencing the AE, 5y Max Grade 3: 0
  Fever: No. of Patients Experiencing the AE, 5y Max Grade 4: 0
  Granulocytopenia: No. of Patients Experiencing the AE, 5y Max Grade 1: 16
  Granulocytopenia: No. of Patients Experiencing the AE, 5y Max Grade 2: 17
  Granulocytopenia: No. of Patients Experiencing the AE, 5y Max Grade 3: 3
  Granulocytopenia: No. of Patients Experiencing the AE, 5y Max Grade 4: 5
  Headache: No. of Patients Experiencing the AE, 5y Max Grade 1: 4
  Headache: No. of Patients Experiencing the AE, 5y Max Grade 2: 3
  Headache: No. of Patients Experiencing the AE, 5y Max Grade 3: 0
  Headache: No. of Patients Experiencing the AE, 5y Max Grade 4: 0
  Infection: No. of Patients Experiencing the AE, 5y Max Grade 1: 4
  Infection: No. of Patients Experiencing the AE, 5y Max Grade 2: 3
  Infection: No. of Patients Experiencing the AE, 5y Max Grade 3: 0
  Infection: No. of Patients Experiencing the AE, 5y Max Grade 4: 0
  Leukopenia: No. of Patients Experiencing the AE, 5y Max Grade 1: 26
  Leukopenia: No. of Patients Experiencing the AE, 5y Max Grade 2: 31
  Leukopenia: No. of Patients Experiencing the AE, 5y Max Grade 3: 10
  Leukopenia: No. of Patients Experiencing the AE, 5y Max Grade 4: 2
  Mucositis: No. of Patients Experiencing the AE, 5y Max Grade 1: 23
  Mucositis: No. of Patients Experiencing the AE, 5y Max Grade 2: 15
  Mucositis: No. of Patients Experiencing the AE, 5y Max Grade 3: 11
  Mucositis: No. of Patients Experiencing the AE, 5y Max Grade 4: 3
  Nausea: No. of Patients Experiencing the AE, 5y Max Grade 1: 59
  Nausea: No. of Patients Experiencing the AE, 5y Max Grade 2: 19
  Nausea: No. of Patients Experiencing the AE, 5y Max Grade 3: 12
  Nausea: No. of Patients Experiencing the AE, 5y Max Grade 4: 1
  Pain Inject Site: No. of Patients Experiencing the AE, 5y Max Grade 1: 24
  Pain Inject Site: No. of Patients Experiencing the AE, 5y Max Grade 2: 0
  Pain Inject Site: No. of Patients Experiencing the AE, 5y Max Grade 3: 0
  Pain Inject Site: No. of Patients Experiencing the AE, 5y Max Grade 4: 0
  Pain, Abdominal: No. of Patients Experiencing the AE, 5y Max Grade 1: 4
  Pain, Abdominal: No. of Patients Experiencing the AE, 5y Max Grade 2: 3
  Pain, Abdominal: No. of Patients Experiencing the AE, 5y Max Grade 3: 1
  Pain, Abdominal: No. of Patients Experiencing the AE, 5y Max Grade 4: 0
  Rash: No. of Patients Experiencing the AE, 5y Max Grade 1: 26
  Rash: No. of Patients Experiencing the AE, 5y Max Grade 2: 15
  Rash: No. of Patients Experiencing the AE, 5y Max Grade 3: 9
  Rash: No. of Patients Experiencing the AE, 5y Max Grade 4: 3
  Somnolence: No. of Patients Experiencing the AE, 5y Max Grade 1: 7
  Somnolence: No. of Patients Experiencing the AE, 5y Max Grade 2: 2
  Somnolence: No. of Patients Experiencing the AE, 5y Max Grade 3: 0
  Somnolence: No. of Patients Experiencing the AE, 5y Max Grade 4: 0
  Stomatitis: No. of Patients Experiencing the AE, 5y Max Grade 1: 32
  Stomatitis: No. of Patients Experiencing the AE, 5y Max Grade 2: 20
  Stomatitis: No. of Patients Experiencing the AE, 5y Max Grade 3: 7
  Stomatitis: No. of Patients Experiencing the AE, 5y Max Grade 4: 1
  Thrombocytopenia: No. of Patients Experiencing the AE, 5y Max Grade 1: 26
  Thrombocytopenia: No. of Patients Experiencing the AE, 5y Max Grade 2: 31
  Thrombocytopenia: No. of Patients Experiencing the AE, 5y Max Grade 3: 16
  Thrombocytopenia: No. of Patients Experiencing the AE, 5y Max Grade 4: 21
  Vomit: No. of Patients Experiencing the AE, 5y Max Grade 1: 32
  Vomit: No. of Patients Experiencing the AE, 5y Max Grade 2: 24
  Vomit: No. of Patients Experiencing the AE, 5y Max Grade 3: 12
  Vomit: No. of Patients Experiencing the AE, 5y Max Grade 4: 5
[7]
  effect of the combination on individual drug pharmacokinetic parameters: without significant modifications of individual drug pharmacokinetic parameters
